Type in all cases: cell-based
In one assay the test system is RSV strain A2. The assay is described as follows: microbe, parasite or virus in culture. The following applies: read-out: RSV HEp-2 EC50. Here is the method:
Antiviral activity against RSV is determined using an infectious cytopathic cell protection assay in HEp-2 cells. In this assay, compounds inhibiting viral infection and/or replication produce a cytoprotective effect against the virus-induced cell killing that can be quantified using a cell viability reagent. The techniques used here are novel adaptations of methods described in published literature (Chapman et al., Antimicrob Agents Chemother. 2007, 51(9):3346-53.).
HEp-2 cells are obtained from ATCC (Manassas, VI) and maintained in MEM media supplemented with 10% fetal bovine serum and penicillin/streptomycin. Cells are passaged twice a week and kept at subconfluent stage. Commercial stock of RSV strain A2 (Advanced Biotechnologies, Columbia, MD) is titered before compound testing to determine the appropriate dilution of the virus stock that generates desirable cytopathic effect in HEp-2 cells.
For antiviral tests, HEp-2 cells are grown in large cell culture flasks to near confluency but not fully so. The compounds to be tested are prediluted in DMSO in 384-well compound dilution plates, either in an 8 or 40 sample per plate standardized dose response format. 3-fold serial dilution increments of each test compound are prepared in the plates and test samples are transferred via acoustic transfer apparatus (Echo, Labcyte) at 100 nL per well into cell culture assay 384-well plates. Each compound dilution is transferred in single or quadruplicate samples into dry assay plates, which are stored until assay is ready to go. The positive and negative controls are laid out in opposite on ends of the plate in vertical blocks (1 column).
Subsequently, an infectious mixture is prepared using an appropriate dilution of virus stock previously determined by titration with cells at a density of 50,000/mL and 20 µL/well is added to test plates w/compounds via automation (uFlow, Biotek). Each plate includes negative and positive controls (16 replicates each) to create 0% and 100% virus inhibition standards, respectively. Following the infection with RSV, testing plates are incubated for 4 days in a 37° C. cell culture incubator. After the incubation, a cell viability reagent, Cell TiterGlo (Promega, Madison, WI) is added to the assay plates, which are incubated briefly, and a luminescent readout is measured (Envision, Perkin Elmer) in all the assay plates. The RSV-induced cytopathic effect, percentage inhibition, is determined from the levels of remaining cell viability. […] Various potent anti-RSV tool compounds are used as positive controls for antiviral activity.

The next assay relates to RSV A2. The assay is described as follows: RSV NHBE EC50 (RSV A2 antiviral assay in NHBE cells). The following applies: read-out: RSV NHBE EC50. The method, then:
Normal human bronchial epithelial (NHBE) cells were purchased from Lonza (Walkersville, MD, Cat #CC-2540) and cultured in Bronchial Epithelial Growth Media (BEGM) (Lonza, Walkersville, MD, Cat #CC-3170). The cells were passaged 1-2 times per week to maintain <80% confluency. The NHBE cells were discarded after 6 passages in culture.
To conduct the RSV A2 antiviral assay, NHBE cells were plated in 96-well plates at a density of 7,500 cells per well in BEGM and allowed to attach overnight at 37° C. Following attachment, 100 μL of cell culture media was removed and 3-fold serially diluted compound was added using a Hewlett-Packard D300 Digital Dispenser. The final concentration of DMSO was normalized to 0.05%. Following compound addition, the NHBE cells were infected by the addition of 100 μL of RSV A2 at a titer of 1×10^4.5 tissue culture infectious doses/mL in BEGM and then incubated at 37° C. for 4 days. The NHBE cells were then allowed to equilibrate to 25° C. and cell viability was determined by removing 100 μL of culture medium and adding 100 μL of Cell-Titer Glo viability reagent. The mixtures were incubated for 10 minutes at 25° C., and the luminescence signal was quantified on an Envision luminescence plate reader.

Another assay concerns HRV16. The assay is described as follows: HRV16 HeLa EC50 (cytopathic effect in H1-HeLa cells). The method, then:
H1-HeLa cells, cultured in complete DMEM medium containing 10% heat-inactivated FBS and 1% Penicillin/Streptomycin, were seeded in 96 well plates at 3000 cells/well one day prior to compound dosing and infection. The antiviral activity of each compound was measured in triplicate. Compounds were added directly to the cell cultures in serial 3-fold dilutions using the HP300 digital dispenser (Hewlett Packard, Palo Alto, CA) immediately prior to infection. The plates were transferred to BSL-2 containment and the appropriate dilution of virus stock, previously determined by titration and prepared in cell culture media, was added to test plates containing cells and serially diluted compounds. Each plate included 6 wells of infected untreated cells and 6 wells of uninfected cells that served as 0% and 100% virus inhibition control, respectively. Following the infection, test plates were incubated for 96 h in a tissue culture incubator set to 33° C./5% CO2. Following incubation, the H1-HeLa cells were removed from incubation and allowed to equilibrate to 25° C. Cell viability was determined by removing 100 μL of culture medium and adding 100 μL of Cell-Titer Glo viability reagent. The mixtures were incubated on a shaker for 10 minutes at 25° C., and the luminescence signal was quantified on an Envision luminescence plate reader.
For orientation: Protection from cytopathic effect is a common read-out in antiviral testing.

Setting [1] is: human respiratory syncytial virus, HEp-2, Table 5 comparative activity, 2',3'-OH vs -OC(O)iPr.
Setting [2] is: human respiratory syncytial virus, NHBE, Table 5 comparative activity, 2',3'-OH vs -OC(O)iPr.
The mark [3] stands for this setting: HeLa, Table 5 comparative activity, 2',3'-OH vs -OC(O)iPr, read-out: HRV16 HeLa EC50.
Setting [4] is: human respiratory syncytial virus, HEp-2, 96 h, Table 3, HEp-2 cells, RSV A2, 4 days.
Where [5] appears, read: human respiratory syncytial virus, NHBE, 96 h, Table 3, NHBE cells, RSV A2, 4 days.
The mark [6] stands for this setting: 96 h, Table 3, H1-HeLa cells, 96 h, read-out: HRV16 HeLa EC50.

Read-outs that look alike come from different tables or passages of the source. A value given as a limit tells only on which side of the number the result lay.

The EC50 is the concentration giving half of the maximal effect. As for `C[C@H](NP(=O)(OC[C@@]1(C#N)O[C@@H](c2ccc3c(N)ncnn23)[C@H](O)[C@@H]1O)Oc1ccccc1)C(=O)OC1CCN(C)CC1` (stereo partly drawn) [Example 19], the EC50 in the assay on RSV strain A2 (setting [1]) is 4180 nM; in the assay on RSV A2 (setting [2]), over 5000 nM; in the assay on HRV16 (HeLa, read-out: HRV16 HeLa EC50, Table 5 comparative activity, 2',3'-OH vs -OC(O)iPr), at least 50000 nM.

For `C[C@H](NP(=O)(OC[C@@]1(C#N)O[C@@H](c2ccc3c(N)ncnn23)[C@H](O)[C@@H]1O)Oc1ccccc1)C(=O)OC1COC1` (stereo partly drawn) [Example 44, oxetan-3-yl ((((2R,3S,4R,5S)-5-(4-aminopyrrolo[2,1-f][1,2,4]triazin-7-yl)-2-cyano-3,4-dihydroxytetrahydrofuran-2-yl)methoxy)(phenoxy)phosphoryl)-L-alaninate], the EC50 with RSV strain A2 (setting [1]) was found to be 997 nM; in the assay on RSV A2 (setting [2]), 1800 nM; in the assay on HRV16 (setting [3]), 4260 nM.

With `CC(C)C(=O)O[C@H]1[C@H](c2ccc3c(N)ncnn23)O[C@](C#N)(COP(=O)(N[C@@H](C)C(=O)OC2CCN(C)CC2)Oc2ccccc2)[C@H]1OC(=O)C(C)C` (stereo partly drawn) [Example 162, (2R,3S,4S,5S)-5-(4-aminopyrrolo[2,1-f][1,2,4]triazin-7-yl)-2-cyano-2-((((((S)-1-((1-methylpiperidin-4-yl)oxy)-1-oxopropan-2-yl)amino)(phenoxy)phosphoryl)oxy)methyl)tetrahydrofuran-3,4-diyl bis(2-methylpropanoate)], the EC50 in the assay with RSV strain A2 (setting [4]) stood at 179 nM; in the assay on RSV strain A2 (setting [1]), 179 nM; in the assay with RSV A2 (setting [5]), 28 nM; with RSV A2 (setting [2]), 28 nM; with HRV16 (setting [6]), 1620 nM; in the assay on HRV16 (setting [3]), 1620 nM.

In the case of `COC(=O)[C@H](C)N[P@](=O)(OC[C@@]1(C#N)O[C@@H](c2ccc3c(NC(=O)C4CCN(C)CC4)ncnn23)[C@H](OC(=O)C2CCN(C)CC2)[C@@H]1OC(=O)C1CCN(C)CC1)Oc1ccccc1` [Example 220, (2R,3S,4S,5S)-2-cyano-2-((((S)-(((S)-1-methoxy-1-oxopropan-2-yl)amino)(phenoxy)phosphoryl)oxy)methyl)-5-(4-(1-methylpiperidine-4-carboxamido)pyrrolo[2,1-f][1,2,4]triazin-7-yl)tetrahydrofuran-3,4-diyl bis(1-methylpiperidine-4-carboxylate)], the EC50 was 167 nM in the assay with RSV strain A2 (setting [4]), 4860 nM in the assay with RSV A2 (setting [5]) and 13500 nM in the assay with HRV16 (setting [6]).

For `CC(C)[C@H](N)C(=O)O[C@H]1[C@H](c2ccc3c(N)ncnn23)O[C@](C#N)(COP(=O)(N[C@@H](C)C(=O)OC2CCOCC2)Oc2ccccc2)[C@H]1OC(=O)[C@@H](N)C(C)C` (stereo partly drawn) [Example 221, (2R,3S,4S,5S)-5-(4-aminopyrrolo[2,1-f][1,2,4]triazin-7-yl)-2-cyano-2-((((((S)-1-oxo-1-((tetrahydro-2H-pyran-4-yl)oxy)propan-2-yl)amino)(phenoxy)phosphoryl)oxy)methyl)tetrahydrofuran-3,4-diyl (2S,2'S)-bis(2-amino-3-methylbutanoate)], the EC50 is 660 nM in the assay on RSV strain A2 (Table 3, HEp-2 cells, RSV A2, 4 days); 1170 nM in the assay with RSV A2 (Table 3, NHBE cells, RSV A2, 4 days); 8990 nM in the assay on HRV16 (Table 3, H1-HeLa cells, 96 h, read-out: HRV16 HeLa EC50).

Regarding `COCCCOC(=O)[C@H](C)NP(=O)(OC[C@@]1(C#N)O[C@@H](c2ccc3c(N)ncnn23)[C@H](OC(=O)C(C)C)[C@@H]1OC(=O)C(C)C)Oc1ccccc1` (stereo partly drawn) [Example 222, (2R,3S,4S,5S)-5-(4-Aminopyrrolo[2,1-f][1,2,4]triazin-7-yl)-2-cyano-2-((((((S)-1-(3-methoxypropoxy)-1-oxopropan-2-yl)amino)(phenoxy)phosphoryl)oxy)methyl) tetrahydrofuran-3,4-diyl bis(2-methylpropanoate)], the EC50 in the assay on RSV strain A2 (setting [4]) amounted to 27 nM; with RSV A2 (setting [5]), 25 nM; with HRV16 (setting [6]) it was 146 nM.

As to `CC(C)C(=O)O[C@H]1[C@H](c2ccc3c(N)ncnn23)O[C@](C#N)(COP(=O)(N[C@@H](C)C(=O)OCCN(C(C)C)C(C)C)Oc2ccccc2)[C@H]1OC(=O)C(C)C` (stereo partly drawn) [Example 224, (2R,3S,4S,5S)-5-(4-aminopyrrolo[2,1-f][1,2,4]triazin-7-yl)-2-cyano-2-((((((S)-1-(2-(diisopropylamino)ethoxy)-1-oxopropan-2-yl)amino)(phenoxy)phosphoryl)oxy)methyl)tetrahydrofuran-3,4-diyl bis(2-methylpropanoate)], the figures for the half-maximal effective concentration (EC50) in the assay on RSV strain A2 (setting [4]), in the assay on RSV A2 (setting [5]) and in the assay with HRV16 (setting [6]) were 378 nM, 986 nM and 1700 nM, respectively.

Consider `CC(C)C(=O)O[C@H]1[C@H](c2ccc3c(N)ncnn23)O[C@](C#N)(COP(=O)(N[C@@H](C)C(=O)O[C@H]2CCN(C)C2)Oc2ccccc2)[C@H]1OC(=O)C(C)C` (stereo partly drawn) [Example 228, (2R,3S,4S,5S)-5-(4-aminopyrrolo[2,1-f][1,2,4]triazin-7-yl)-2-cyano-2-((((((S)-1-(((S)-1-methylpyrrolidin-3-yl)oxy)-1-oxopropan-2-yl)amino)(phenoxy)phosphoryl)oxy)methyl)tetrahydrofuran-3,4-diyl bis(2-methylpropanoate)], for which the EC50 in the assay on RSV strain A2 (setting [4]) came out at 84 nM; in the assay on RSV strain A2 (setting [1]), 84 nM; in the assay on RSV A2 (setting [5]) it was 59 nM; with RSV A2 (setting [2]), 59 nM; with HRV16 (setting [6]), 956 nM; with HRV16 (setting [3]) it was 956 nM.

Consider `COCCC(=O)O[C@H]1[C@H](c2ccc3c(N)ncnn23)O[C@](C#N)(CO[P@@](=O)(N[C@@H](C)C(=O)OC)Oc2ccccc2)[C@H]1OC(=O)CCOC` [Example 231, (2R,3S,4S,5S)-5-(4-aminopyrrolo[2,1-f][1,2,4]triazin-7-yl)-2-cyano-2-((((S)-(((S)-1-methoxy-1-oxopropan-2-yl)amino)(phenoxy)phosphoryl)oxy)methyl) tetrahydrofuran-3,4-diyl bis(3-methoxypropanoate)], for which the concentration for a half-maximal effect (EC50) was 124 nM in the assay with RSV strain A2 (setting [4]), 75 nM in the assay on RSV A2 (setting [5]) and 1730 nM in the assay on HRV16 (setting [6]).

For the molecule `CC(C)C(=O)O[C@H]1[C@H](c2ccc3c(N)ncnn23)O[C@](C#N)(COP(=O)(N[C@@H](C)C(=O)O[C@@H]2CCN(C)C2)Oc2ccccc2)[C@H]1OC(=O)C(C)C` (stereo partly drawn) [Example 232, (2R,3S,4S,5S)-5-(4-aminopyrrolo[2,1-f][1,2,4]triazin-7-yl)-2-cyano-2-((((((S)-1-(((R)-1-methylpyrrolidin-3-yl)oxy)-1-oxopropan-2-yl)amino)(phenoxy)phosphoryl)oxy)methyl)tetrahydrofuran-3,4-diyl bis(2-methylpropanoate)], the figures for the EC50 in the assay with RSV strain A2 (setting [4]), in the assay on RSV A2 (setting [5]) and with HRV16 (setting [6]) were 95 nM, 53 nM and 880 nM, respectively.

The record behind these values is US12264173B2 (GILEAD SCIENCES, INC., priority 2020, dated 2025).
